Test results reported in US8288552B2, “Dihydropyridone amidesas P2X7 modulators” (Roche Palo Alto LLC, priority 2008, dated 2012).

Molecular target: T1, P2X7 (UniProt Q99572)
T1 sequence (Q99572 1-595): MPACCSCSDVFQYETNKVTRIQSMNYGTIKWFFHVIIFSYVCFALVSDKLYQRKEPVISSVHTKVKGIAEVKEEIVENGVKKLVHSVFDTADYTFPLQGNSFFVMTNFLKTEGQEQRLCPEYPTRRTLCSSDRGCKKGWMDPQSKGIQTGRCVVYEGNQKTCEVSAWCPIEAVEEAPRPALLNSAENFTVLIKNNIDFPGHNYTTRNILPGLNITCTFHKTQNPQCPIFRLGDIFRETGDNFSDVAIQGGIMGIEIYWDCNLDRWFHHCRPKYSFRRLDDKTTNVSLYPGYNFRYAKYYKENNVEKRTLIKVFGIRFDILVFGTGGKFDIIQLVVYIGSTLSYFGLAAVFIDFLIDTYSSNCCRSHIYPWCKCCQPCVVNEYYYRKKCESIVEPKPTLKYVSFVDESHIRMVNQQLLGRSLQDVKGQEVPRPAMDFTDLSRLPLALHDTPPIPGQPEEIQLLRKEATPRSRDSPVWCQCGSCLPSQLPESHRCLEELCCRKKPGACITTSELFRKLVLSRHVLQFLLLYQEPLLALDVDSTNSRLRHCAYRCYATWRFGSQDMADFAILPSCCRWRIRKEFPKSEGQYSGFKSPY
Assay: P2X7 pKi of Table 1
Format: cell-based
Protocol: Intracellular Calcium Flux (FLIPR) Assay
Compound and Reagent Preparation
Stock solutions of compounds were prepared from powders as a 10 mM DMSO stock solution. These solutions were stored at RT during the two week period of these experiments to prevent freeze-thaw of the DMSO stocks. The DMSO stocks were added to the appropriate assay buffer at a concentration of 10 μM, and then diluted serially to the final concentrations that were tested. […] The aqueous solutions of compounds as well as ATP (Sigma A7699) and BzATP (Sigma B6396) were prepared fresh for each day of experiment.
1321N1 cells stably expressing the full length human P2X7 gene (1321N1-hP2X7) and HEK293 cells stably expressing the full length rat P2X7 gene (HEK293-rP2X7) were obtained from the Roche Cell Culture Facility. 1321N1-hP2X7 cells were grown in Dulbecco's Modified Eagle's Medium (DMEM) high glucose supplemented with 10% FBS and 250 μg/mL G418. HEK293-rP2X7 cells were grown in DMEM/F-12 supplemented with 10% FBS, 1 mM CaCl2, 2 mM MgCl2, 2 mM L-Glutamine and 500 μg/ml G418. Cells were split such that they never became >70% confluent.
Intracellular Calcium Flux (FLIPR)
On the day prior to the experiment, 1321N1-hP2X7 or HEK293-rP2X7 cells were released into suspension with calcium-free PBS+Versene and washed by centrifugation with calcium-free PBS to remove the Versene. Cells were resuspended in growth medium at a density of 2.5×10^5 cells/mL and seeded into black walled, clear bottom 96 well plates (50,000 cells/well) approximately 18 hr prior to intracellular calcium flux experiments.
On the day of the experiment, plates were washed with FLIPR buffer (calcium- and magnesium-free Hank's Balanced Salt Solution (HBSS) supplemented with 10 mM Hepes, 2.5 mM probenecid and 2 mM calcium chloride) using a BIO-TEK 96 channel plate washer and incubated with […] fluo-3 dye at 37° C. for one hr. The dye was then removed by plate washing and the cells were allowed to equilibrate for 20 min at room temperature with antagonist or vehicle (FLIPR buffer). Agonist (100 μM BzATP final concentration for hP2X7; 5 μM BzATP final concentration or rP2X7) was added online with the FLIPR and fluorescence measurements made at 1 sec intervals for 60 sec followed by 3 sec intervals for a further 4 min (5 min total). A final addition of 5 μM ionomycin was made and the maximal BzATP-evoked fluorescence normalized to the maximal ionomycin-evoked fluorescence.

Row | SMILES | pKi
1 | COc1cc(NC(=O)C2=CNC(=O)CC2c2ccc(F)cc2)c(Br)cc1C (centres unmarked) [Compound 4, 4-(4-Fluoro-phenyl)-6-oxo-1,4,5,6-tetrahydro-pyridine-3-carboxylic acid(2-bromo-5-methoxy-4-methyl-phenyl)-amide] | 6.6
2 | Cc1ccccc1NC(=O)C1=CNC(=O)C[C@H]1c1ccc(F)cc1 [Compound 101, (S)-4-(4-Fluoro-phenyl)-6-oxo-1,4,5,6-tetrahydro-pyridine-3-carboxylic acid o-tolylamide] | 6.415
3 | COc1cc(C)c(NC(=O)C2=CNC(=O)C[C@H]2c2ccc(Cl)cc2)cc1OC [Compound 131, (S)-4-(4-Chloro-phenyl)-6-oxo-1,4,5,6-tetrahydro-pyridine-3-carboxylic acid (4,5-dimethoxy-2-methyl-phenyl)-amide] | 6.165
4 | COc1cc(Br)c(NC(=O)C2=CNC(=O)C[C@@H]2c2ccc(F)cc2)cc1OC [Compound 39, (R)-4-(4-Fluoro-phenyl)-6-oxo-1,4,5,6-tetrahydro-pyridine-3-carboxylic acid(2-bromo-4,5-dimethoxy-phenyl)-amide] | 6.99
5 | Cc1cc(Cl)c(OCCO)cc1NC(=O)C1=CNC(=O)C[C@@H]1c1ccc(F)cc1 [Compound 74, (R)-4-(4-Fluoro-phenyl)-6-oxo-1,4,5,6-tetrahydro-pyridine-3-carboxylic acid[4-chloro-5-(2-hydroxy-ethoxy)-2-methyl-phenyl]-amide] | 6.63
6 | Cc1ccc(C(C)C)cc1NC(=O)C1=CNC(=O)C[C@H]1c1cccc(F)c1 [Compound 69, (S)-4-(3-Fluoro-phenyl)-6-oxo-1,4,5,6-tetrahydro-pyridine-3-carboxylic acid(5-isopropyl-2-methyl-phenyl)-amide] | 7.01
7 | Cc1cccc(NC(=O)C2=CNC(=O)C[C@H]2c2ccc(F)cc2)c1Cl [Compound 103, (S)-4-(4-Fluoro-phenyl)-6-oxo-1,4,5,6-tetrahydro-pyridine-3-carboxylic acid(2-chloro-3-methyl-phenyl)-amide] | 7.44
8 | Cc1c(F)cccc1NC(=O)C1=CNC(=O)C[C@H]1c1ccc(F)cc1 [Compound 87, (S)-4-(4-Fluoro-phenyl)-6-oxo-1,4,5,6-tetrahydro-pyridine-3-carboxylic acid(3-fluoro-2-methyl-phenyl)-amide] | 6.63
9 | COc1cc(NC(=O)C2=CNC(=O)CC2c2cccc(F)c2)c(Cl)cc1Cl (centres unmarked) [Compound 22, 4-(3-Fluoro-phenyl)-6-oxo-1,4,5,6-tetrahydro-pyridine-3-carboxylic acid(2,4-dichloro-5-methoxy-phenyl)-amide] | 6.12
10 | COc1cc(C)c(NC(=O)C2=CN(C)C(=O)C(C)C2c2ccc(F)cc2)cc1OC (centres unmarked) [Compound 91, 4-(4-Fluoro-phenyl)-1,5-dimethyl-6-oxo-1,4,5,6-tetrahydro-pyridine-3-carboxylic acid(4,5-dimethoxy-2-methyl-phenyl)-amide] | 5.65
11 | COc1cc(Br)c(NC(=O)C2=CNC(=O)C[C@H]2c2ccc(F)cc2)cc1OC [Compound 40, (S)-4-(4-Fluoro-phenyl)-6-oxo-1,4,5,6-tetrahydro-pyridine-3-carboxylic acid(2-bromo-4,5-dimethoxy-phenyl)-amide] | 7.895
12 | O=C1C[C@@H](c2cccc(F)c2)C(C(=O)NCc2ccccc2Cl)=CN1 [Compound 84, (S)-4-(3-Fluoro-phenyl)-6-oxo-1,4,5,6-tetrahydro-pyridine-3-carboxylic acid 2-chloro-benzylamide] | 6.365
13 | O=C1CC(c2cccc(F)c2)C(C(=O)Nc2cc(O)ccc2Cl)=CN1 (centres unmarked) [Compound 25, 4-(3-Fluoro-phenyl)-6-oxo-1,4,5,6-tetrahydro-pyridine-3-carboxylic acid(2-chloro-5-hydroxy-phenyl)-amide] | 5.395
14 | Cc1cc(Cl)c(OCCO)cc1NC(=O)C1=CN(C)C(=O)C[C@H]1c1ccc(F)cc1 [Compound 142, (S)-4-(4-Fluoro-phenyl)-1-methyl-6-oxo-1,4,5,6-tetrahydro-pyridine-3-carboxylic acid[4-chloro-5-(2-hydroxy-ethoxy)-2-methyl-phenyl]-amide] | 6.835
15 | COC(=O)c1ccc(C)c(NC(=O)C2=CNC(=O)CC2c2cccc(F)c2)c1 (centres unmarked) [Compound 16, 3-{[4-(3-Fluoro-phenyl)-6-oxo-1,4,5,6-tetrahydro-pyridine-3-carbonyl]-amino}-4-methyl-benzoic acid methyl ester] | 6.43
16 | COc1cc(NC(=O)C2=CNC(=O)C[C@@H]2c2cccc(F)c2)c(Br)cc1C [Compound 29, (R)-4-(3-Fluoro-phenyl)-6-oxo-1,4,5,6-tetrahydro-pyridine-3-carboxylic acid(2-bromo-5-methoxy-4-methyl-phenyl)-amide] | 6.405
17 | COc1cc(C)c(NC(=O)C2=CNC(=O)C[C@@H]2c2ccc(F)cc2)cc1OC [Compound 41, (R)-4-(4-Fluoro-phenyl)-6-oxo-1,4,5,6-tetrahydro-pyridine-3-carboxylic acid (4,5-dimethoxy-2-methyl-phenyl)-amide] | 7.225
18 | O=C1CC(c2cccc(F)c2)C(C(=O)Nc2cc(Cl)ccc2OC(F)F)=CN1 (centres unmarked) [Compound 27, 4-(3-Fluoro-phenyl)-6-oxo-1,4,5,6-tetrahydro-pyridine-3-carboxylic acid(5-chloro-2-difluoromethoxy-phenyl)-amide] | 5.18
19 | CCOc1cc(NC(=O)C2=CNC(=O)CC2c2cccc(F)c2)c(C)cc1Cl (centres unmarked) [Compound 70, 4-(3-Fluoro-phenyl)-6-oxo-1,4,5,6-tetrahydro-pyridine-3-carboxylic acid(4-chloro-5-ethoxy-2-methyl-phenyl)-amide] | 7.425
20 | COc1cc(NC(=O)C2=CNC(=O)C[C@H]2c2ccc(F)cc2)c(Br)cc1F [Compound 109, (S)-4-(4-Fluoro-phenyl)-6-oxo-1,4,5,6-tetrahydro-pyridine-3-carboxylic acid(2-bromo-4-fluoro-5-methoxy-phenyl)-amide] | 7.15
21 | COc1cc(NC(=O)C2=CNC(=O)C[C@H]2c2cccc(F)c2)c(Br)cc1C [Compound 33, (S)-4-(3-Fluoro-phenyl)-6-oxo-1,4,5,6-tetrahydro-pyridine-3-carboxylic acid(2-bromo-5-methoxy-4-methyl-phenyl)-amide] | 7.195
22 | COC(=O)COc1cc(NC(=O)C2=CNC(=O)C[C@H]2c2ccc(F)cc2)c(C)cc1Cl [Compound 125, (2-Chloro-5-{[(S)-4-(4-fluoro-phenyl)-6-oxo-1,4,5,6-tetrahydro-pyridine-3-carbonyl]-amino}-4-methyl-phenoxy)-acetic acid methyl ester] | 7.645
23 | COc1cc(C)c(NC(=O)C2=CNC(=O)CC2c2ccc(F)cc2)cc1OC (centres unmarked) [Compound 32, 4-(4-Fluoro-phenyl)-6-oxo-1,4,5,6-tetrahydro-pyridine-3-carboxylic acid(4,5-dimethoxy-2-methyl-phenyl)-amide] | 7.98
24 | Cc1ccc([C@H](C)O)cc1NC(=O)C1=CNC(=O)C[C@H]1c1ccc(F)cc1 [Compound 90, (S)-4-(4-Fluoro-phenyl)-6-oxo-1,4,5,6-tetrahydro-pyridine-3-carboxylic acid[5-((S)-1-hydroxy-ethyl)-2-methyl-phenyl]-amide] | 7.19
25 | O=C1CC(c2cccc(F)c2)C(C(=O)Nc2cc3c(cc2Cl)OC(F)(F)O3)=CN1 (centres unmarked) [Compound 137, 4-(3-Fluoro-phenyl)-6-oxo-1,4,5,6-tetrahydro-pyridine-3-carboxylic acid(6-chloro-2,2-difluoro-benzo[1,3]dioxol-5-yl)-amide] | 4.98
26 | COc1cc(NC(=O)C2=CNC(=O)CC2c2ccc(F)cc2)ccc1Cl (centres unmarked) [Compound 10, 4-(4-Fluoro-phenyl)-6-oxo-1,4,5,6-tetrahydro-pyridine-3-carboxylic acid(4-chloro-3-methoxy-phenyl)-amide] | 5.543
